Experimental data: patent US6506885B1, “Monoclonal antibodies to the drug tilmicosin and a method for detecting the same” (The United States of America as represented by the …, priority 2001, dated 2003)

What was measured:
[1] = tested on: monoclonal antibody 37-2-6; assay: competitive indirect ELISA (ciELISA) on (XII) coated plates, antibody 37-2-6; assay type: binding
Procedure: (§1) The supernatant culture fluid from the cloned hybridomas also may be screened to select for those producing antibodies having a high affinity for tilmicosin. Affinity may be measured using solid phase immunoassays such as ELISA, RIA, or equilibrium dialysis using labeled tilmicosin. In the preferred embodiment, affinity is measured by competitive indirect ELISA as described in the Examples, and is conducted at a final antibody concentration (dilution from the tissue culture supernatant) to give 50% of maximal binding to a tilmicosin- or 23-deoxo-23-demycinosyl tilmicosin-carrier complex coated substrate or assay well (i.e., the concentration of the antibody that results in 50% of the plateau activity in direct binding ELISA). […] Following incubation and washing, bound antibody in the wells is determined in the same manner as the db-ELISA. Percent inhibition may be calculated as (1−B/Bo)×100, where B is the optical density (OD) of a well with a competitor and Bo is the mean OD of the wells without competitor (control). […]
(§2) The cells which were positive in the initial screening and expanded were analyzed by competitive indirect ELISA (ciELISA) below for inhibition of antibody binding in the presence of free (unconjugated) tilmicosin on (XII) coated antigen plates. […]

[2] = tested on: monoclonal antibody 9-5-3; assay: competitive indirect ELISA (ciELISA) on (XII) coated plates, antibody 9-5-3; assay type: binding
Procedure: as §1, §2

[3] = tested on: monoclonal antibody 9-1-4 (Til-5); assay: competitive indirect ELISA (ciELISA) on (XII) coated plates, antibody 9-1-4; assay type: binding
Procedure: as §1, §2

[4] = tested on: monoclonal antibody 47-1-1; assay: competitive indirect ELISA (ciELISA) on (XII) coated plates, antibody 47-1-1; assay type: binding
Procedure: as §1, §2

[5] = tested on: monoclonal antibody 37-4-5 (Til-1); assay: competitive indirect ELISA (ciELISA) on (XII) coated plates, antibody 37-4-5; assay type: binding
Procedure: as §1, §2

[6] = tested on: monoclonal antibody 9-7-7; assay: competitive indirect ELISA (ciELISA) on (XII) coated plates, antibody 9-7-7; assay type: binding
Procedure: as §1, §2

[7] = bovine lung tissue; after serum levels dropped below therapeutic concentrations; cited from earlier work
[8] = (IC50 of Tilmicosin)/(IC50 of other Compound) X100, — = no cross-reactivity observed

| IC50, pmol/well ([1]; free compound as competitor) | IC50, pmol/well ([2]; free compound as competitor) | IC50, pmol/well ([3]; free compound as competitor) | IC50, pmol/well ([4]; free compound as competitor) | IC50, pmol/well ([5]; free compound as competitor) | IC50, pmol/well ([6]; free compound as competitor) | Structure (SMILES) | % Competition (percentage of cross-reactivity) [1, 8] | % Competition (percentage of cross-reactivity) [2, 8] | % Competition (percentage of cross-reactivity) [3, 8] | % Competition (percentage of cross-reactivity) [4, 8] | % Competition (percentage of cross-reactivity) [5, 8] | % Competition (percentage of cross-reactivity) [6, 8] | time lung concentrations exceed the P. haemolytica MIC after dosage [7] |
| --- | --- | --- | --- | --- | --- | --- | --- | --- | --- | --- | --- | --- | --- |
| 44.2 pmol/well | 35.3 pmol/well | 41.5 pmol/well | 44.2 pmol/well | 61.8 pmol/well | 40.6 pmol/well | CC1CNCC(C)C1 (stereo not shown) [3,5-dimethyl piperidine] | 24% | 72% | 18% | 17% | 19% | 26% | – |
| – | – | – | – | – | – | CCC1OC(=O)CC(O)C(C)C(OC2OC(C)C(O)C(N(C)C)C2O)C(CCN2CC(C)CC(C)C2)CC(C)C(=O)C=CC(C)=CC1COC1OC(C)C(O)C(OC)C1OC (stereo not shown) [Tilmicosin] | – | – | – | – | – | – | at least 72 hours |
